Assay results taken from patent publication US7816353B2 (Exelixis, Inc., priority 2003, dated 2010).

Target: T1, p70S6K (Homo sapiens, UniProt P23443, T412E)
T1 construct: human p70S6 kinase domain residues 1-421, containing a T412E mutation; made in house
Experiment: p70S6 Kinase Assay (Luciferase-Coupled Chemiluminescent Kinase assay, LCCA)
Type: biochemical
Settings: human p70S6 kinase domain residues 1-421, T412E; 5 μM ATP; read-out: p70S6K IC50
Procedure, shortened: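 Luciferase-coupled chemiluminescence measured percent ATP remaining after the 2 h kinase reaction at ambient temperature, with ATP near the kinase's KM. Ten inhibitor concentrations were tested. IC50 was obtained from a Hill-equation fit.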

T1 sequence (P23443 1-421 T412E): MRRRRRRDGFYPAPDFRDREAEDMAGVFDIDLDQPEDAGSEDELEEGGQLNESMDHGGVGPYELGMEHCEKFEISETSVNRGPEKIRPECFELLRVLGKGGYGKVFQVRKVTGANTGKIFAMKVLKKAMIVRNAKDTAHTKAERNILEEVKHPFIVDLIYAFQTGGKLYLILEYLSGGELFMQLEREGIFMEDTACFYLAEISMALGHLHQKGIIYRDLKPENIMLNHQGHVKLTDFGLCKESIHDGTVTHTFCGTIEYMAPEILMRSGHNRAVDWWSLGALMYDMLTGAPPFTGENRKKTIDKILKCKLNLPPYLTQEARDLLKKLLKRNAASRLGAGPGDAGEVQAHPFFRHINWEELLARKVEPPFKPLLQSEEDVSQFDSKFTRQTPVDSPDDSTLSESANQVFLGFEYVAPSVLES

SMILES	IC50 [nM]
CSc1nc(N)nc(N[C@H](C)C(=O)Nc2cccc(C(F)(F)F)c2)c1C#N [Example 83, N^2-[2-amino-5-cyano-6-(methylthio)pyrimidin-4-yl]-N-[3-(trifluoromethyl)phenyl]-D-alaninamide]	> 2000
CSc1nc(N)nc(N[C@@H](CCCN/C(N)=N/[N+](=O)[O-])C(=O)Nc2cccc(C(F)(F)F)c2)c1C#N [Example 111, N^2-[2-amino-5-cyano-6-(methylthio)pyrimidin-4-yl]-N^5-[imino(nitroamino)methyl]-N-[3-(trifluoromethyl)phenyl]-L-omithinamide]	> 2000
CSc1nc(N)nc(NC2(C(=O)Nc3cccc(C(F)(F)F)c3)CC2)c1C#N [Example 73, 1-{[2-amino-5-cyno-6-(methylthio)pyrimidin-4-yl]amino}-N-[3-(trifluoromethyl)phenyl]cyclopropanecarboxamide]	> 2000
CCN(CC)CCOc1cccc(NC(=O)[C@H](C)Nc2nc(N)nc(SC)c2C#N)c1 [Example 92, N^2-[2-amino-5-cyano-6-(methylthio)pyrimidin-4-yl]-N-(3-{[2-(diethylamino)ethyl]oxy}phenyl)-L-alaninamide]	> 2000
CSc1nc(N)nc(SCC(=O)Nc2cc(C(F)(F)F)ccc2N)c1C#N [Example 62]	500 to 2000
CSc1nc(N)nc(N[C@@H](C)C(=O)Nc2cccc(C(=O)N3CCN(C)CC3)c2)c1C#N [Example 82, N^2-[2-amino-5-cyano-6-(methylthio)pyrimidin-4-yl]-N-{3-[(4-methylpiperazin-1-yl)carbonyl]phenyl}-L-alaninamide]	> 2000
CNc1nc(NCC(=O)Nc2cccc(C(F)(F)F)c2)c(C#N)c(SC)n1 [Example 65, N^2-[5-cyano-2-(methylamino)-6-(methylthio)pyrimidin-4-yl]-N-[3-(trifluoromethyl)phenyl]glycinamide]	500 to 2000
CSc1nc(N)nc(OC(C(=O)Nc2cccc(C(F)(F)F)c2)C(C)C)c1C#N (stereo in doubt) [Example 70, (2S)-2-{[2-amino-5-cyano-6-(methylthio)pyrimidin-4-yl]oxy}-3-methyl-N-[3-(trifluoromethyl)phenyl]butanamide]	> 2000
CSc1nc(N)nc(N[C@@H](CCCCN)C(=O)Nc2cccc(C(F)(F)F)c2)c1C#N [Example 114, N^2-[2-amino-5-cyano-6-(methylthio)pyrimidin-4-yl]-N-[3-(trifluoromethyl)phenyl]-L-lysinamide]	> 2000
N#Cc1c(SCC(=O)Nc2cccc(C(F)(F)F)c2)nc(N)nc1N1CCOCC1 [Example 84, 2-[(2-amino-5-cyano-6-morpholin-4-ylpyrimidin-4-yl)thio]-N-[3-(trifluoromethyl)phenyl]acetamide]	> 2000

Continued, values first:

IC50 [nM]	SMILES
> 2000	CCOc1nc(N)nc(N[C@@H](COC)C(=O)Nc2cccc(C(F)(F)F)c2)c1C#N [Example 197, N~2~-[2-amino-5-cyano-6-(ethyloxy)pyrimidin-4-yl]-O-methyl-N-[3-(trifluoromethyl)phenyl]-L-serinamide]
> 2000	CCOc1nc(N)nc(N[C@@H](CCC(=O)OC)C(=O)Nc2cccc(C(F)(F)F)c2)c1C#N [Example 170, Methyl N~2~-[2-amino-5-cyano-6-(ethyloxy)pyrimidin-4-yl]-N-[3-(trifluoromethyl)phenyl]-L-alpha-glutaminate]
> 2000	CCOc1nc(N)nc(N[C@@H](CCCNC(=O)OC(C)(C)C)C(=O)Nc2cccc(C(F)(F)F)c2)c1C#N [Example 128, 1,1-dimethylethyl((4S)-4-{[2-amino-5-cyano-6-(ethyloxy)pyrimidin-4-yl]amino}-5-oxo-5-{[3-(trifluoromethyl)phenyl]amino}pentyl)carbamate]
> 2000	CCOc1nc(N)nc(N(C)[C@@H](C)C(=O)Nc2cccc(C(F)(F)F)c2)c1C#N [Example 121, N^2-[2-amino-5-cyano-6-(ethyloxy)pyrimidin-4-yl]-N^2-methyl-N-[3-(trifluoromethyl)phenyl]-L-alaninamide]
> 2000	COCCNc1nc(N[C@@H](C)C(=O)Nc2cccc(C(F)(F)F)c2)c(C#N)c(SC)n1 [Example 116]
